One block for each compound: values may come before it. *1 amine or outer side, *2 acyl side, *3 side chain or, on linkers, in order; H or OH if unused. Where a SMILES comes first, the peptide text is derived from it. Bridges are numbered along the chain shown (N, C = ends). Roman numbers before positions name the chains, in order. [ ]: non-standard residue; d: D form. Actinocin(9to1) = Cc1c2oc3c(C)ccc(C(=O)[*:1])c3nc-2c(C(=O)[*:2])c(N)c1=O; NMeV = CN[C@H](C(=O)O)C(C)C; Sar = CNCC(=O)O
How the values were obtained:
[1] = tested on: LINE1 RNAs; assay: LINE1 RNA FISH in naïve CD4+ T-cells treated with 3TC retrotranscriptase inhibitor; format: cell-based, human; conditions: versus vehicle (DMSO)
Description: Briefly, antisense biotinylated riboprobes for LINE1, AluY and HERVK were in vitro transcribed using MAXIscript T7 transcription kit (Invitrogen) and Biotin RNA labeling mix (Roche). 50-100 ng of antisense biotinylated riboprobes per experiment were used. 3% paraformaldehyde (PFA) fixed T-cells were washed with 0.05% Triton-X-100 in PBS, permeabilized with 0.5% Triton-X-100 in PBS and maintained in 20% glycerol/PBS.
To quantify mean fluorescence intensity of RNA signal in 3D reconstructed nuclei, images were analyzed with NIS-Elements Software (by Nikon). In the “General Analysis” a mask on DAPI signals was generated to identify single nuclei, and then a “3D measurement” of RNA signals in every nucleus was performed. To measure the colocalization of RNA and histone mark signals was used ImageJ Software to control the Pearson Correlation through the command “Colocalization Threshold” for every nucleus.

[2] = tested on: LINE1 RNAs; assay: Actinomycin D treatment of quiescent naïve CD4+ T-cells, LINE1 expression by qRT-PCR; format: cell-based, human; conditions: Actinomycin D 5 μg/mL, 16 h
Description: Quiescent naïve CD4^+ T-cells were treated for 16 h with Actinomycin D 5 μg/mL (Merck; cat. num. A9415) as reported in^68. TCR signaling pathway inhibition was performed using the following immunosuppressive drugs: Rapamycin (100 nM; Merck; cat. num. R8781) for mTORC1, Ciclosporin A (0,5 μg/mL; Merck; cat. num. C3662) for Calcineurin pathway, Dexamethasone (1 μM; Merck; cat. num. D4902) for NF-κB pathway. Quiescent naïve CD4^+ T-cells were pretreated for 2 hours with the overmentioned drugs, then stimulated with Dynabeads Human T-activator anti-CD3/anti-CD28 beads in Th1 medium, in the presence of the different inhibitors; T-cells were collected 2, 4, 8 h post activation. Otherwise, naïve CD4^+ T-cells activated and cultured in Th1 medium for 72 h were treated for 48 h with the drugs. Treated cells were controlled for their vitality and treatment efficacy was assessed.

[3] = target: mTORC1 (Homo sapiens, UniProt P42345+P62942); assay: LINE1 expression in memory CD4+ T-cells from blood of patients treated with mTORC1 inhibitors; conditions: memory CD4+ T-cells from blood of kidney transplanted patients treated with Everolimus, versus healthy individuals

Structure (SMILES): Nc1ccn([C@@H]2CS[C@H](CO)O2)c(=O)n1 [3TC]
staining of LINE1 RNAs (RNA-FISH) [1]: completely unchanged

Structure (SMILES): Cc1c2oc3c(C)ccc(C(=O)N[C@@H]4C(=O)N[C@H](C(C)C)C(=O)N5CCC[C@H]5C(=O)N(C)CC(=O)N(C)[C@@H](C(C)C)C(=O)O[C@@H]4C)c3nc-2c(C(=O)N[C@@H]2C(=O)N[C@H](C(C)C)C(=O)N3CCC[C@H]3C(=O)N(C)CC(=O)N(C)[C@@H](C(C)C)C(=O)O[C@@H]2C)c(N)c1=O [actinomycin D, Actinomycin D] (I: T[dV]P[Sar][NMeV] / II: T[dV]P[Sar][NMeV]; ester I:1-I:C, II:1-II:C; linker I:N-II:N via Actinocin(9to1))
LINE1 RNAs levels [2]: moderately affect

LINE1 RNAs expression [3]: re-express LINE1 RNAs
Structure (SMILES): CO[C@H]1C[C@@H]2CC[C@@H](C)[C@@](O)(O2)C(=O)C(=O)N2CCCC[C@H]2C(=O)O[C@H]([C@H](C)C[C@@H]2CC[C@@H](OCCO)[C@H](OC)C2)CC(=O)[C@H](C)/C=C(\C)[C@@H](O)[C@@H](OC)C(=O)[C@H](C)C[C@H](C)/C=C/C=C/C=C/1C [Everolimus]
